One compound from paper PMC10254852, “Design, Synthesis and Anticancer Evaluation of Nitroimidazole Radiosensitisers” (Molecules, 2023) can be followed below.

For one data set, the system named is HCT116/54C cells. Put plainly: In vitro radiosensitisation under anoxia, clonogenic survival. Type of data set: cell-based, human. The settings on record: compound 1 mM, radiation dose for 1% survival/radiation dose for 1% survival with compound, mean ± SEM.
The nature of data set [1]: Plasma pharmacokinetics after single i.v. dose. In kind it is in vivo. As to conditions: female, mouse, iv, NIH-III mice, 2.2 mmol/kg i.v. The procedure: Specific pathogen-free six- to eight-week-old female NIH-III mice, bred in the Vernon Jansen Unit, University of Auckland, were used for animal experiments. Animals had ad libitum access to food and water and were maintained in microisolator cages on a 12 h light/dark cycle. All treatments were administered by i.v. injection at a dose of 2.2 mmol/kg and injection volume of 10 mL/kg. Compounds 2, 34 and 38 were administered as solutions in saline containing 1% DMSO or for 9–12 as solutions in saline containing 2 molar equivalents of NaHCO3. Control animals received an i.v. injection of saline at 10 mL/kg. All animal experiments were conducted under the auspices of the University of Auckland Animal Ethics Committee (approval 1781).
Female NIH-III mice were injected with a single i.v. dose of 34 at its MAD of 2.2 mmol/kg in saline. Blood was collected by cardiac puncture under terminal CO2 anaesthesia at 5, 10, 30, 60 and 120 min after dosing. Blood was immediately centrifuged (3000× g, 3 min), and plasma was stored at −80 °C for HPLC. Tumour samples were prepared and analysed by HPLC using standard protocols established in our laboratory.

With `O=[N+]([O-])c1nccn1CS(=O)(=O)NCCN1CCOCC1` [Compound 34], the “SER at 1 mM” value with HCT116/54C cells is given as 1.92 ± 0.01. In data set [1], the AUC (commonly the area under the concentration-time curve, a measure of exposure) was found to be 960 µM·h; the Cmax – broadly, the peak of the concentration-time curve – worked out at 1530 µM; the half-life (as a rule, the time in which the quantity being followed falls by half) is 1.52 h.
